{
  "source": "paper PMC3753236",
  "about": "“Glucocorticosteroids in Nano-Sterically Stabilized Liposomes Are Efficacious for Elimination of the Acute Symptoms of Experimental Cerebral Malaria” (PLoS ONE, 2013)",
  "key": {"[1]": {"test_system": "Plasmodium berghei ANKA (PbA)", "assay": "Early treatment of experimental cerebral malaria (ECM), ICR mice infected with PbA", "settings": "10 mg/kg/d on days 3, 5, 7, 9 p.i.", "description": "(§1) Plasmodium berghei ANKA (PbA; PbA MRA-311, CDC, Atlanta, GA, USA) was maintained in vivo by serial transfer of parasitized erythrocytes (PE) from infected to naïve mice. Experiments were also performed using a second strain of PbA, similarly maintained, and designated PbAus in the text (courtesy of Prof. G. Grau, University of Sydney, Australia).\n(§2) Parasitemia was monitored by thin blood smears prepared from tail blood. These were stained with a 25% Giemsa solution, examined under a light microscope, and parasitemia determined as the percent of infected red blood cells per 10,000 erythrocytes. Disease severity was determined according to scoring of neurological symptoms and changes in weight and temperature, as previously described […] Parasitemias above 20% and the absence of neurological symptoms indicated severe anemic malaria.\nFor early ECM treatment, injections were given on days 3, 5, 7, and 9 p.i; for late treatment, treatment was given every other day, starting on day 5 p.i. for a total of at least two injections. Infected, non-treated control mice were injected with 5% dextrose or empty nSSL. Clinical signs and parasitemias were monitored and disease severity scored as described […] Surviving mice were treated with 2×10 mg/kg/d artemisone by intraperitoneal injection in order to achieve cure; mice were monitored for four weeks post-artemisone treatment in order to allow detection of possible late recrudescence. […] At each time-point, at least 3 mice from each group were chosen at random, deeply anesthetized, and brains were removed following intracardial perfusion (using saline, if organs were destined for real-time (rt)PCR analysis, or saline/formalin, if organs were destined for histopathological analysis). Organs destined for rtPCR analysis were snap-frozen in liquid nitrogen and stored at −80°C until use. Organs destined for immunohistology were immediately immersed in cryoprotectant solution (see below)."}, "[2]": {"test_system": "Plasmodium berghei ANKA (PbAus)", "assay": "Late-stage treatment of ECM followed by artemisone, PbAus-infected C57Bl/6 mice", "description": "as §1, §2\n(§3) For early ECM treatment, injections were given on days 3, 5, 7, and 9 p.i; for late treatment, treatment was given every other day, starting on day 5 p.i. for a total of at least two injections. Infected, non-treated control mice were injected with 5% dextrose or empty nSSL. Clinical signs and parasitemias were monitored and disease severity scored as described […] At each time-point, at least 3 mice from each group were chosen at random, deeply anesthetized, and brains were removed following intracardial perfusion (using saline, if organs were destined for real-time (rt)PCR analysis, or saline/formalin, if organs were destined for histopathological analysis). Organs destined for rtPCR analysis were snap-frozen in liquid nitrogen and stored at −80°C until use. Organs destined for immunohistology were immediately immersed in cryoprotectant solution (see below)."}, "[3]": {"test_system": "non-chloroquine resistant P. falciparum", "assay": "P. falciparum culture, 3H-hypoxanthine incorporation", "type": "cell-based, Plasmodium falciparum", "settings": "at concentrations up to 33 µM", "description": "The parasite was grown in a human red blood cell culture (RPMI 1640, 7.5% bicarbonate, 50 µM hypoxanthine, 50 µg/ml gentamycin, and 7.5% human plasma) at 1% hematocrit and 2% parasitemia. Cultures containing predominantly ring forms were used; synchronization of the culture was performed if trophozoites represented more than 1–2% of the various developmental stages. Briefly, the culture was centrifuged and the supernatant replaced by 5% (isotonic) sorbitol. After 5 minutes at 37°C the culture was centrifuged again and the supernatant replaced by culture medium to obtain a final 1% hematocrit.\nDrug testing was performed in 96-well microtiter plates incubated at 37°C in a 5% O2, 5% CO2, and 90% N2 gas mixture for 72 hours. After 48 hours, 1 µCi ^3H-hypoxanthine was added to each well and the plates were read the next day using a scintillation counter."}, "[4]": {"assay": "Biodistribution of BMS administered as free BMS or nSSL-BMS", "settings": "infected mice; for concentration at 1 h / concentration at 6 h / concentration at 24 h / concentration at 48 h: C57Bl/6 Ola-Hsd, mouse, iv, µg drug/g organ; for concentration at 1 h: 1 h post-injection; for concentration at 48 h: 48 h post-injection", "description": "The total and intraliposomal (after treatment with Dowex 2X-800 anion exchanger, pH 5, which binds all free drug) concentrations of MPS or BMS and their hydrolysis products were quantified using HPLC [5]. Liposome size distribution, phospholipid concentration, drug to lipid ratio, and level of free drug (i.e. percent drug encapsulated) were determined (see Table 1) as previously described.\nAt 1 h, 6 h, 24 h, and 48 h post-injection, mice (n = 3 per group) were anesthetized and sacrificed for organ collection. Organs were pooled and homogenized in 5% dextrose, followed by spiking with hydrocortisone, which served as an internal standard for extraction and sample processing. The homogenates were extracted as described elsewhere. Quantification of BMS and its derivatives was performed by HPLC as described above."}, "[5]": {"test_system": "Plasmodium berghei ANKA (PbAus)", "assay": "Early treatment of ECM, PbAus-inoculated C57Bl/6 mice (with sequential artemisone)", "settings": "for Death: ECM (number of mice) / Death: Severe anemic malaria (number of mice) / Death: Toxicity (number of mice) / Death: ECM (%) / Death: Severe anemic malaria (%) / Average clinical score (±SEM): days 3, 5, 7, 9 p.i.; for Death: ECM (%) / Death: Severe anemic malaria (%): excludes acute toxicity deaths; for Average clinical score (±SEM): 11 days post-inoculation; for % survival / Group score: 20 mg/kg (Fig 6 legend)", "description": "as §1, §2, §3"}, "[6]": {"settings": "brain, 20 mg/kg, BMS in brain, 20 mg/kg i.v. on day 6 p.i."}, "[7]": {"settings": "heart, 20 mg/kg, BMS in heart, 20 mg/kg i.v. on day 6 p.i."}, "[8]": {"settings": "liver, 20 mg/kg, BMS in liver, 20 mg/kg i.v. on day 6 p.i."}, "[9]": {"settings": "lungs, 20 mg/kg, BMS in lungs, 20 mg/kg i.v. on day 6 p.i."}, "[10]": {"settings": "day 5 p.i., treatment days 3, 5, 7, 9 p.i."}, "[11]": {"settings": "day 9 p.i., treatment days 3, 5, 7, 9 p.i."}},
  "data": [
    {"smiles": "C[C@H]1C[C@H]2[C@@H]3CCC4=CC(=O)C=C[C@]4(C)[C@@]3(F)[C@@H](O)C[C@]2(C)[C@@]1(O)C(=O)COC(=O)CCC(=O)O", "note": "[BMS, β-methasone hemisuccinate]", "values": [
      {"measurement": "ECM rate (incidence of CM)", "setting": "[1]", "value": 67, "unit": "%"},
      {"measurement": "Mice that died of acute toxicity", "setting": "[2]; 20 mg/kg on days 5, 7, 9 p.i., upon second or third injection", "value": "6/10"},
      {"measurement": "Average clinical score on day 7 p.i.", "setting": "[2]; 20 mg/kg, treatment started day 5 p.i.", "value": "4.2±2.2"},
      {"measurement": "IC50 (effect against cultured P. falciparum)", "setting": "[3]", "value": "no effect ^*"},
      {"measurement": "IC50 (effect against cultured P. falciparum)", "setting": "[3]; listed as Free BMS", "value": "not effective"},
      {"measurement": "concentration at 1 h", "setting": "[4]; [6]", "value": 400, "unit": "ng/g"},
      {"measurement": "concentration at 6 h", "setting": "[4]; brain, 20 mg/kg, BMS in brain, 20 mg/kg i.v. on day 6 p.i., 6 h post-injection", "value": 100, "unit": "ng/g"},
      {"measurement": "concentration at 24 h", "setting": "[4]; brain, 20 mg/kg, BMS in brain, 20 mg/kg i.v. on day 6 p.i., 24 h post-injection", "value": 100, "unit": "ng/g"},
      {"measurement": "concentration at 48 h", "setting": "[4]; [6]", "value": 100, "unit": "ng/g"},
      {"measurement": "concentration at 1 h", "setting": "[4]; [7]", "value": 2900, "unit": "ng/g"},
      {"measurement": "concentration at 6 h", "setting": "[4]; heart, 20 mg/kg, BMS in heart, 20 mg/kg i.v. on day 6 p.i., 6 h post-injection", "value": 2400, "unit": "ng/g"},
      {"measurement": "concentration at 24 h", "setting": "[4]; heart, 20 mg/kg, BMS in heart, 20 mg/kg i.v. on day 6 p.i., 24 h post-injection", "value": "~3000", "unit": "ng/g"},
      {"measurement": "concentration at 48 h", "setting": "[4]; [7]", "value": 3300, "unit": "ng/g"},
      {"measurement": "concentration at 1 h", "setting": "[4]; [8]", "value": 2400, "unit": "ng/g"},
      {"measurement": "concentration at 6 h", "setting": "[4]; liver, 20 mg/kg, BMS in liver, 20 mg/kg i.v. on day 6 p.i., 6 h post-injection", "value": 3400, "unit": "ng/g"},
      {"measurement": "concentration at 24 h", "setting": "[4]; liver, 20 mg/kg, BMS in liver, 20 mg/kg i.v. on day 6 p.i., 24 h post-injection", "value": 400, "unit": "ng/g"},
      {"measurement": "concentration at 48 h", "setting": "[4]; [8]", "value": 400, "unit": "ng/g"},
      {"measurement": "concentration at 1 h", "setting": "[4]; [9]", "value": 1600, "unit": "ng/g"},
      {"measurement": "concentration at 6 h", "setting": "[4]; lungs, 20 mg/kg, BMS in lungs, 20 mg/kg i.v. on day 6 p.i., 6 h post-injection", "value": 2400, "unit": "ng/g"},
      {"measurement": "concentration at 24 h", "setting": "[4]; lungs, 20 mg/kg, BMS in lungs, 20 mg/kg i.v. on day 6 p.i., 24 h post-injection", "value": 2000, "unit": "ng/g"},
      {"measurement": "concentration at 48 h", "setting": "[4]; [9]", "value": 2000, "unit": "ng/g"},
      {"measurement": "BMS in lungs, µg drug/g organ", "setting": "[4]; 20 mg/kg i.v. on day 6 p.i., 24 h post-injection, listed as Free BMS, 20 mg/kg", "value": 1.9, "unit": "µg drug/g organ"},
      {"measurement": "Brain to liver BMS concentration ratio", "setting": "[4]; 6 h post-injection", "value": 0.03},
      {"measurement": "Death: ECM (number of mice)", "setting": "[5]; 5 mg/kg i.v.", "value": 5},
      {"measurement": "Death: Severe anemic malaria (number of mice)", "setting": "[5]; 5 mg/kg i.v.", "value": 1},
      {"measurement": "Death: Toxicity (number of mice)", "setting": "[5]; 5 mg/kg i.v.", "value": 3},
      {"measurement": "Death: ECM (%)", "setting": "[5]; 5 mg/kg i.v.", "value": "(83%)"},
      {"measurement": "Death: Severe anemic malaria (%)", "setting": "[5]; 5 mg/kg i.v.", "value": "(16%)"},
      {"measurement": "Death: ECM (number of mice)", "setting": "[5]; 10 mg/kg i.v.", "value": 9},
      {"measurement": "Death: Severe anemic malaria (number of mice)", "setting": "[5]; 10 mg/kg i.v.", "value": 1},
      {"measurement": "Death: Toxicity (number of mice)", "setting": "[5]; 10 mg/kg i.v.", "value": 3},
      {"measurement": "Death: ECM (%)", "setting": "[5]; 10 mg/kg i.v.", "value": "(90%)"},
      {"measurement": "Death: Severe anemic malaria (%)", "setting": "[5]; 10 mg/kg i.v.", "value": "(10%)"},
      {"measurement": "Average clinical score (±SEM)", "setting": "[5]; 10 mg/kg", "value": "7.5±1.6"},
      {"measurement": "Death: ECM (number of mice)", "setting": "[5]; 20 mg/kg i.v.", "value": 9},
      {"measurement": "Death: Severe anemic malaria (number of mice)", "setting": "[5]; 20 mg/kg i.v.", "value": 3},
      {"measurement": "Death: Toxicity (number of mice)", "setting": "[5]; 20 mg/kg i.v.", "value": 5},
      {"measurement": "Death: ECM (%)", "setting": "[5]; 20 mg/kg i.v.", "value": "(75%)"},
      {"measurement": "Death: Severe anemic malaria (%)", "setting": "[5]; 20 mg/kg i.v.", "value": "(25%)"},
      {"measurement": "Survival rate on day 13 p.i., at the end of the cerebral phase", "setting": "[5]; 20 mg/kg on days 3, 5, 7, 9 p.i., listed as free BMS", "value": 12, "unit": "%"},
      {"measurement": "Average clinical score (±SEM)", "setting": "[5]; 20 mg/kg", "value": "12.3±2.4"},
      {"measurement": "% survival", "setting": "[5]; [10]", "value": 100, "unit": "%"},
      {"measurement": "Group score", "setting": "[5]; [10]", "value": "1.3±1.1"},
      {"measurement": "% survival", "setting": "[5]; [11]", "value": 47, "unit": "%"},
      {"measurement": "Group score", "setting": "[5]; [11]", "value": "8.4 ±1.7"},
      {"measurement": "Incidence of ECM", "setting": "[5]; treatment days 3, 5, 7, 9 p.i., as quoted with the gene expression study", "value": 75, "unit": "%"}
    ]}
  ]
}
